Entries after “also recorded” stand apart in the source; their conditions may differ.
Test system: Male NMRI mice
Assay: Animal model of autism: defective habituation (locomotor activity) in mice rendered hypoglutamatergic with MK-801
Type: in vivo
Excerpt: The inventor of the present invention and her coworkers have developed an animal model of autism, where mice are rendered hypoglutamatergic by treatment with the glutamate antagonist MK-801 (dizocilpine). Similarly to persons with autism, these hypoglutamatergic animals display defective habituation, perseverant behavior (e.g. relentless forward locomotion, so-called “obstinate progression”), stereotypies, a meager behavioral repertoire and difficulties to change behavioral program. The researchers have chosen to focus their investigation on the defective habituation, since this variable is easily quantified, and a prominent feature of autism.
Male NMRI mice (B&K Universal AB, Sollentuna, Sweden) weighing 25-30g at the time of testing were used in the experiments. Animals were housed in groups of about 20 per cage for at least one week before the experiment was carried out, with free access to water and food. Temperature: 20-22° C.; 12h light-dark cycle (lights on 6 AM).
(+)-MK-801 hydrogen maleate (dizocilpine; Research Biochemical Inc) was dissolved in physiological saline. M100907 [(+)-(R)-α-(2,3-dimethoxyphenyl)-1-[2-(4-fluorophenyl) ethyl]-4-piperidinemethanol; courtesy Hoechst Marion Roussel, Inc USA] was dissolved in a few microliters of acetic acid and a 5.5% glucose solution. The injection volume was 10 ml/kg. Control. animals were always given the same solvent as the drug was dissolved in.
Locomotor activity was measured using activity meters (Diaiscan animal activity monitor, model RXYZM (16) Tao, Omnitech Electronics, Columbus, Ohio, USA). The equipment consists of eight light and sound attenuated boxes (42×42×30 cm) with infrared photo sensors along the front and the side near the floor of the boxes.
When moved to a novel environment, normal mice display an initial phase of exploratory activity lasting about 30 minutes. […] The results shown in the figure are medians and upper and lower quartiles.
The inventor and […] co-workers then tested a compound according to the invention, namely M100907. […] M100907 was administered intraperitoneally immediately before the commencement of the behavioral recording. The M100907 doses were 0.001., 0.01 and 0.1 mg/kg, respectively. The results shown are medians and upper and lower quartiles (veh=vehicle=controls).

Compound	effect on MK-801-induced deficient habituation (loss of habituation, FIG. 2) (M100907 0.001, 0.01 and 0.1 mg/kg intraperitoneally immediately before behavioral recording, MK-801-treated mice, ordinate m/30 min)	interference with normal behavior (M100907 0.001, 0.01 and 0.1 mg/kg intraperitoneally, mice)	hyperactivity induced by the glutamate antagonist MK-801 (mouse, M100907 intraperitoneally)	habituation in novel environment (loss of habituation, FIG. 1) (MK-801 0.3 or 0.8 mg/kg intraperitoneally immediately before 70 minutes recording, ordinate counts/5 min interval)
COc1cccc([C@H](O)C2CCN(CCc3ccc(F)cc3)CC2)c1OC [M100907, R-(+)-α-(2,3-dimethoxyphenyl)-1-[2-(4-fluorophenylethyl)]-4-piperidine-methanol]	displays anti-autistic effects; also recorded: alleviates the deficient habituation	without interfering with normal behavior	reducing the hyperactivity	
C[C@]12N[C@H](Cc3ccccc31)c1ccccc12 [MK-801, reference compound]				deficient habituation; also recorded: impaired habituation

Reference: patent US6358977B1, “Use of 4-piperidinemethanol derivatives in treatment of neurodevelopmental disorders” (A. Carlsson Research AB, priority 1998, dated 2002)
